# How the values were obtained:
# QSOX1-a mRNA = QSOX1-a mRNA abundance by RT-qPCR in MDA-MB-231 cells; format: cell-based, human; set-up: dose or concentration left out as unconfirmed; conditions: at the, the highest dose
# Experimental: Analysis of mRNA Abundance by RT-qPCR. Unless stated otherwise, all RT-qPCR experiments were performed to measure nascent RNA levels by using Click-it Nascent RNA Capture Kit (Cat #C10365, Thermo Fisher) per the manufacturer's protocols. Briefly, cells were treated with 0.2 mM of ethynyl uridine (EU) in growth medium for 16 h, after which the medium was replaced with fresh growth medium lacking EU. Compound or ASO treatment was performed at the same time of initial EU treatment, and compounds were replenished after replacing the medium to remove EU. Total RNA was extracted by using a Zymo Quick-RNA Miniprep Kit as per manufacturer's protocol with DNase treatment. The click reaction and pull-down of nascent RNA were performed as described in “In Vitro Chemical-Crosslinking and Isolation by Pull-down (Chem-CLIP) with Fluorescently Labeled RNA”. Reverse transcription (RT) was performed by using 300 ng total RNA and a QScript cDNA synthesis kit (QuantaBio) per manufacturer's protocols qPCR was performed in 384-well plates by using Power SYBR Green Master Mix (Life Technologies) on a QuantStudioS™ Cycler (Applied Biosystems) using the “Comparative Ct with Melt” method.
# MDA-MB-231 cells = experiment: Proliferation assay; format: cell-based, human; conditions: 48 h treatment
# Experimental: Proliferation Assay. MDA-MB-231 cells were seeded in 96-well plates (Corning) at ˜40% confluency and treated with compound or transfected with ASO as described in Cell Culture. Compound was replenished every 16 h by replacing all the growth medium with freshly prepared medium containing same concentration of compounds. After 48 h total treatment period, proliferation was measured by using CellTiter 96 AQueous One Solution Cell Proliferation Assay (Cat #G3582, Promega) per manufacturer's protocol.
structure (smiles),measurement,setting,value
CCOC(=O)C1=C(Nc2ccccc2)S/C(=C\c2ccc(OCCOCCOCCOCCNC(=O)CCC(=O)N(C)[C@H]3CC[C@@H](c4ccc(Cl)c(Cl)c4)c4ccccc43)c(O)c2)C1=O [Compound F1-RIBOTAC],decrease of QSOX1-a mRNA levels,QSOX1-a mRNA,~35%
same,antiproliferative activity compared to F1-Amide delivered at twice the dose,MDA-MB-231 cells,enhanced activity
same,effect on proliferation of MDA-MB-231 cells,MDA-MB-231 cells,dose-dependently reduced proliferation
